Assay results reported in ChEMBL document CHEMBL4311942, “Design of Trp-Rich Dodecapeptides with Broad-Spectrum Antimicrobial Potency and Membrane-Disruptive Mechanism” (J Med Chem, 2019).
≈ marks a conversion by molar mass, not a printed value.

Experiments:
[1] = system: Staphylococcus aureus; test: Antibacterial activity against Staphylococcus aureus ATCC 25923 incubated for 18 to 24 hrs by broth microdilution method; format: functional
[2] = system: Staphylococcus aureus; test: Antibacterial activity against Staphylococcus aureus ATCC 29213 incubated for 18 to 24 hrs by broth microdilution method; format: functional
[3] = system: Salmonella typhimurium; test: Antibacterial activity against Salmonella enterica serovar typhimurium C77-31 incubated for 18 to 24 hrs by broth microdilution method; format: functional, Salmonella enterica subsp. enterica serovar Typhimurium
[4] = system: Escherichia coli; test: Antibacterial activity against Escherichia coli UB1005 incubated for 18 to 24 hrs by broth microdilution method; format: functional
[5] = system: Escherichia coli; test: Antibacterial activity against Escherichia coli ATCC 25922 incubated for 18 to 24 hrs by broth microdilution method; format: functional
[6] = system: Staphylococcus epidermidis; test: Antibacterial activity against Staphylococcus epidermidis ATCC 12228 incubated for 18 to 24 hrs by broth microdilution method; format: functional
[7] = system: Escherichia coli; test: Antibacterial activity against Escherichia coli 20411 clinical isolate incubated for 18 to 24 hrs by broth microdilution method; format: functional
[8] = system: Acinetobacter baumannii; test: Antibacterial activity against Acinetobacter baumannii AB1901 clinical isolate incubated for 18 to 24 hrs by broth microdilution method; format: functional
[9] = system: Acinetobacter baumannii; test: Antibacterial activity against Acinetobacter baumannii AB1902 clinical isolate incubated for 18 to 24 hrs by broth microdilution method; format: functional
[10] = system: Pseudomonas aeruginosa; test: Antibacterial activity against Pseudomonas aeruginosa 25349 clinical isolate incubated for 18 to 24 hrs by broth microdilution method; format: functional
[11] = system: Escherichia coli; test: Antibacterial activity against ciprofloxacin-resistant Escherichia coli ATCC 25922 incubated for 18 to 24 hrs; format: functional
[12] = Resistance index, ratio of MIC for antibacterial activity against ciprofloxacin-resistant Escherichia coli to MIC for Escherichia coli ATCC 25922 incubated for 18 to 24 hrs by broth microdilution method; format: functional
[13] = system: Staphylococcus aureus; test: Antibacterial activity against Staphylococcus aureus 11011 incubated for 18 to 24 hrs by broth microdilution method; format: functional

| Compound | MIC [1] [µM] | MIC [2] [µM] | MIC [3] [µM] | MIC [4] [µM] | MIC [5] [µM] | MIC [6] [µM] | MIC [7] [µM] | MIC [8] [µM] | MIC [9] [µM] | MIC [10] [µM] | MIC [11] [µM] | Ratio [12] | MIC ([3]; Salmonella enterica subsp. enterica serovar Typhimurium) [µM] | MIC [13] [µM] |
| --- | --- | --- | --- | --- | --- | --- | --- | --- | --- | --- | --- | --- | --- | --- |
| CO[C@H]1/C=C/O[C@@]2(C)Oc3c(C)c(O)c4c(O)c(c(/C=N/N5CCN(C)CC5)c(O)c4c3C2=O)NC(=O)/C(C)=C\C=C\[C@H](C)[C@H](O)[C@@H](C)[C@@H](O)[C@@H](C)[C@H](OC(C)=O)[C@@H]1C [RIFAMPIN] | 0.25 (≈ 0.206 µg/mL) | 0.25 (≈ 0.206 µg/mL) | 4 (≈ 3.29 µg/mL) | 8 (≈ 6.58 µg/mL) | 4 (≈ 3.29 µg/mL) | 0.25 (≈ 0.206 µg/mL) | 4 (≈ 3.29 µg/mL) | 1 (≈ 0.823 µg/mL) | 1 (≈ 0.823 µg/mL) | 16 (≈ 13.2 µg/mL) | 8 (≈ 6.58 µg/mL) | 2 |  |  |
| COLISTIN | 128 | 128 |  | 0.5 | 0.5 | 64 | 0.5 | 1 | 0.5 | 0.5 | 0.5 | 1 | 0.5 | 32 |
